Data published in patent publication US20110223167A1, “COMBINATION THERAPY USING RECEPTOR TYROSINE KINASE INHIBITORS AND ANGIOGENESIS INHIBITORS” (priority 2001, published 2011).

Tested on: progressive squamous cell carcinoma of the superior maxilla
Conditions: for tumor response: weekly: 1200 mg/m^2 Cilengitide Monday and Friday, 200 mg EMD 72000 followed by 1000 mg/m^2 gemcitabine Thursday, from November 2000; for effect on tumor growth: cisplatin (75 mg/m^2) and docetaxel (75 mg/m^2) together, three administrations, from August 1999
[1] = EMD 121974 (600 mg/m^2) combined with gemcitabine (1000 mg/m^2), since mid of January 2000

Experimental: Case History and Clinical Findings/Status at the Start of the Compassionate use Treatment:
A biopsy of the suspected large tumor in the upper maxilla was performed. […] On Aug. […] Due to the unfavourable histologic classification the patient received a post-operative radiation therapy up to 50.4 Gray from September to October 1997.
In July 1998 progression of disease was suspected which led to hospitalization. […] After consultation of radiotherapists another radiotherapy was recommended which started in August 1998. The patient was treated simultaneously with gemcitabine (100 mg) as a radiosensitizer. […] Following the combined radio-chemotherapy the patient received a therapy with 1000 mg gemcitabine (5 circles of 16 administrations).
In March 1999 again progression of the carcinoma occurred which led to additional radiation therapy and palliative resection of the tumor.
Diffuse bleedings out of the large tumor mass required frequent transfusions of erythrocyte concentrates.
Course of Compassionate Use Treatment with Anti-Angiogenic Agent/Chemotherapeutic Agents:
The patient was treated with EMD 121974 and Gemzar from Nov. 17, 1999 until Mar. 30, 2000. From Jun. 04, 2000 until Apr. […] Chemotherapy-treatment was stopped because of haematotoxicity and Cilengitide treatment was continued alone.
The patient's condition worsened after several weeks and the patient was treated with an increased dose of 1200 mg/m^2 EMD 121974 twice weekly.
Treatment with h425+Cilengitide+Chemotherapeutics:
EMD 72000 was first given in November 2000 in a dosage of 200 mg (infusion over half an hour) after premedication with dexamethasone/dimetindenmaleate (Fenistil) and ranitidin (Zantic). One week later the patient received additionally gemcitabine (1000 mg/m^2). The weekly treatment schedule was: Monday: 1200 mg/m^2 Cilengitide (one hour is infusion), Thursday 200 mg EMD 72000 (half an hour infusion) followed by 1000 mg/m^2 gemcitabine (one hour infusion), Friday 1200 mg/m^2 Cilengitide (one hour infusion). […] The tumor masses were surgically removed at several occasions.

CC(C)[C@H]1C(=O)N[C@@H](CCCN=C(N)N)C(=O)NCC(=O)N[C@@H](CC(=O)O)C(=O)N[C@H](Cc2ccccc2)C(=O)N1C [EMD 121974, Cyclo-(Arg-Gly-Asp-DPhe-NMeVal)]
surface of the tumor (EMD 121974 (600 mg/m^2) combined with gemcitabine (1000 mg/m^2)): signs of granulation and wound healing | tumor bleeding (EMD 121974 (600 mg/m^2) combined with gemcitabine (1000 mg/m^2), no need for further transfusions): Bleeding stopped | hearing [1]: able to hear again on their right ear | increase of mouth opening compared with December 1999 [1]: 30% | disease status (EMD 121974 alone, 600 mg/m^2 twice a week, April to June 2000): stable disease | tumor response: crater-like disintegration of the tumor mass

N.N.[Cl][Pt][Cl] [cisplatin, reference compound]
effect on tumor growth: lack of effect on tumor growth

Nc1ccn([C@@H]2O[C@H](CO)[C@@H](O)C2(F)F)c(=O)n1 [gemcitabine, reference compound]
tumor response (clinical remission) (radiotherapy with simultaneous gemcitabine (100 mg) as radiosensitizer, 6 week-therapy from August 1998): complete clinical remission

CC(=O)O[C@@]12CO[C@@H]1C[C@H](O)[C@@]1(C)C(=O)[C@H](O)C3=C(C)[C@@H](OC(=O)[C@H](O)[C@@H](NC(=O)OC(C)(C)C)c4ccccc4)C[C@@](O)([C@@H](OC(=O)c4ccccc4)[C@H]21)C3(C)C [docetaxel, reference compound]
effect on tumor growth: lack of effect on tumor growth

EMD 72000: Monoclonal human antibody 425 (h425), Merck KgaA, Germany; anti-EGFR antibody
tumor response: crater-like disintegration of the tumor mass
